Test results taken from EP1581471B9, “CYCLOPENTENONE DERIVATIVES FOR CANCER THERAPY” (Dabur Research Foundation, priority 2002, dated 2004).
Values after ≈ are worked out from the molar mass of the structure shown.

Legend:
[1] = system: VEGF; experiment: VEGF levels in ECV304 endothelial cells (ELISA); assay type: cell-based, Human; conditions: 5ug/ml, 4 hours
Procedure: Human endothelial cells (ECV304) were plated at the density of 8-10 x10^5 cells per 2 ml in a six well plate. After an overnight incubation of cells at 37°C, cyclopentenone derivatives at a concentration of 5ug/ml was added to the wells. The untreated wells served as controls. The plates were incubated for 4 hours at 37°C. The medium was collected from all the wells (control and treated) and spun down at 2000 r.p.m to remove the cellular material. The supernatant was collected and used for ELISA (Quantikine human VEGF, R&D Systems). The assay employs the quantitative sandwich enzyme immunoassay technique. A monoclonal antibody specific for VEGF has been pre-coated onto a microplate. Standards and samples were pipetted into the wells and VEGF present was bound by the immobilized antibody. After washing away the unbound substances, an enzyme-linked polyclonal antibody specific for VEGF was added to the wells. Following a wash to remove any unbound antibody-enzyme reagent, a substrate solution was added to the wells and color developed in proportion to the amount of VEGF bound in the initial step. The optical density of each well was determined within 30 minutes using a microplate reader set to 450nm and reference wavelength at 540nm. The VEGF levels were inhibited by the addition of cyclopentenone derivatives in vitro.

[2] = system: tubulin; experiment: tubulin polymerization in vitro (absorbance at 340 nm); assay type: biochemical; conditions: tubulin 1mg/ml, 37°C, pH 6.9; read-out: IC50 values (uM) for inhibition of Tubulin Polymerization
Procedure: The cyclopentenone derivatives were checked for their effects on tubulin polymerization in vitro. Briefly, the tubulin assembly reaction was performed at 37°C in buffer containing 80 mM PIPES, 1mM EGTA, 1.0 mM GTP and 1mM MgCl2 (pH 6.9) at a tubulin concentration of 1mg/ml in the presence or absence of the cyclopentenone derivatives. The final concentration of the cyclopentenone derivatives in the reaction mixture varied from 1-5uM. The derivatives were dissolved in 0.1% DMSO. The control experiments were carried out with 0.1% DMSO. The tubulin polymerization was followed by measurement of the absorbance of the solution at 340 nm every 30 seconds. […] Thus the cyclopentenone derivatives mediated their observed anticancer activities by tubulin depolymerization.

[3] = system: Hep2; experiment: three day MTT cytotoxicity assay; assay type: cell-based, human; conditions: Hep2 (larynx), 72 hours
Procedure: (§1) A number of the cyclopentenone derivatives were tested for cytotoxicity against 9 human tumor cell lines. Briefly, a three day MTT cytotoxicity assay was performed, which is based on the principle of uptake of MTT (3-(4,5-dimethylthiazol-2-yl)-2,5-diphenyl tetrazolium bromide), a tetrazolium salt, by the metabolically active cells where it is metabolized by active mitochondria into a blue colored formazan product that is read spectrophotometrically. MTT was dissolved in phosphate buffered saline with a pH of 7.4 to obtain an MTT concentration of 5mg/ml; the resulting mixture was filtered through a 0.22 micron filter to sterilize and remove a small amount of insoluble residue. For each type of tumor cell, 10000 to 15000 cells were seeded in a 96-well culture plate and incubated with the individual cyclopentenone derivatives in a CO2 incubator for a total of 72 hours. Control cells not treated with the cyclopentenone derivatives were similarly incubated. The assay was terminated by adding 100 ug (20 ul) of MTT to each well, then incubating for additional one hour, and finally adding 50 ul of 10% SDS-0.01N HCl to each well to lyse the cells and dissolve formazan. After incubating for one hour, the plate was read spectrophotometrically at 540 nm and the percentage of cytotoxicity calculated using the following formula: Cytotoxicity percentage = 100 × [1-(X/R1)], [formula] where X = (absorbance of treated sample at 540 nm) - (absorbance of blank at 540 nm) R1 = absorbance of control sample at 540 nm.
(§2) The ED50 Values of the cytotoxicity defined as the concentration at which 50 % of the cells are killed in vitro was calculated for each cell line treated with each of the cyclopentenone derivatives.
(§3) The cell lines are PTC (all colon), MOLT-4 (leukemia), SW620 […], DU145 (prostate), KB (oral squamous cell), L132 (lung), MIAPaCa2 (Pancreas), Hep2, (larynx), PA-1 (ovary), HuTu80 (duodenum), ECV 304 (endothelial), and 293 (kidney).

[4] = system: MOLT-4; experiment: three day MTT cytotoxicity assay; assay type: cell-based, human; conditions: MOLT-4 (leukemia), 72 hours
Procedure: as §1, §2, §3

[5] = system: PTC; experiment: three day MTT cytotoxicity assay; assay type: cell-based, human; conditions: PTC (colon), 72 hours
Procedure: as §1, §2, §3

[6] = system: HuTu80; experiment: three day MTT cytotoxicity assay; assay type: cell-based, human; conditions: HuTu80 (duodenum), 72 hours
Procedure: as §1, §2, §3

[7] = system: PA-1; experiment: three day MTT cytotoxicity assay; assay type: cell-based, human; conditions: PA-1 (ovary), 72 hours
Procedure: as §1, §2, §3

[8] = system: DU145; experiment: three day MTT cytotoxicity assay; assay type: cell-based, human; conditions: DU145 (prostate), 72 hours
Procedure: as §1, §2, §3

[9] = system: KB; experiment: three day MTT cytotoxicity assay; assay type: cell-based, human; conditions: KB (oral squamous cell), 72 hours
Procedure: as §1, §2, §3

[10] = system: L132; experiment: three day MTT cytotoxicity assay; assay type: cell-based, human; conditions: L132 (lung), 72 hours
Procedure: as §1, §2, §3

[11] = system: 293; experiment: three day MTT cytotoxicity assay; assay type: cell-based, human; conditions: 293 (kidney), 72 hours
Procedure: as §1, §2, §3

[12] = system: MIAPaCa2; experiment: three day MTT cytotoxicity assay; assay type: cell-based, human; conditions: MIAPaCa2 (Pancreas), 72 hours
Procedure: as §1, §2, §3

[13] = system: ECV 304; experiment: three day MTT cytotoxicity assay; assay type: cell-based, human; conditions: ECV 304 (endothelial), 72 hours
Procedure: as §1, §2, §3

[14] = system: SW620; experiment: three day MTT cytotoxicity assay; assay type: cell-based, human; conditions: 72 hours
Procedure: as §1, §2, §3

[15] = system: Caspase-3; experiment: Caspase-3 induction in KB cells (colorimetric substrate DEVD-pNA); assay type: cell-based, Human; conditions: 5ug/ml
Procedure: Human squamous cell carcinoma (KB) were plated in a 25 cm^2 flask. When cultures achieved confluence, the cyclopentenone derivative of structure 20 was added to the cells. The final concentration of derivative of the structure 20 in the flask was 5ug/ml. The untreated wells served as controls. The cells were incubated with the drug for 2 different time points of 6 and 16 hours at 37°C. The cells were collected by centrifugation at 2000 r.p.m. for 10 minutes. The supernatant was gently removed and discarded while Lysis Buffer was added to the cell pellet (25ul of lysis buffer per […]). The cell lysate was incubated on ice for 10 minutes and centrifuged at 10,000-x g for 1 minute. The supernatant was transferred to a new tube and kept on ice. 50ul of the cell lysate was added in a 96 well plate. To this was added 2x Reaction Buffer. Prior to using reaction buffer, 10ul of fresh DTT stock per 1 ml of 2x Reaction Buffer was added. To each well 5ul of Caspase-3 colorimetric substrate (DEVD-pNA) was added. The plate was incubated for 1-2 hours at […]. and read at 405nm.
The level of caspase enzymatic activity in the cell lysate is directly proportional to the absorbance at 405nm. […]

[16] = system: PTC tumor xenografts; experiment: In vivo anti-tumor activity on PTC tumor xenografts; design: species or system Balb/c athymic mice; conditions: intravenously 0.5 mg/100 µL once a day for 14 days, day 23, compared to controls
Procedure: PTC tumor xenografts were grown in Balb/c athymic mice by subcutaneous inoculation of a single cell suspension of PTC cells (15 X 10^6 cells/100 µL). The tumor bearing animals were divided into 2 groups of three animals each including one group comprising untreated control animals. Treatment with compound of formula no. 49 was initiated when the average tumor volumes, as measured using a vernier caliper, were […]. Compound of formula no. 49 was administered intravenously to the assigned group of tumor bearing animals at a dose of 0.5 mg/100 µL once a day and the treatment was continued for a period of 14 days.
The antitumor activity of the compound was monitored by measuring tumor volumes every fourth day using the formula W*W*L*0.4 (W = smaller diameter, L = larger diameter). The percentage inhibition of tumor growth was calculated using the formula (1- tumor volume-treated / tumor volume-control) * 100. […] Compound of formula no. […] The percentage inhibition of tumor growth caused compound of formula no. 49 as compared to controls on day 23 was 45.8%.

With `COc1ccc(C2=C(c3cc(OC)c(OC)c(OC)c3)C(=O)CC2O)cc1O` (stereo not shown) [Compound 39] the “Percent Reduction in VEGF” value [1] was 21.9 ± 1.5%, the IC50 [2] was 1.4 ± 0.6 µM and the “ED50 (ug/ml) Hep2” value [3] was under 1 µg/mL. The “ED50 (ug/ml) MOLT4” value [4] was 62.5 ± 5.0 µg/mL (≈ 162 µM), the “ED50 (ug/ml) PTC” value [5] was 78 ± 4.0 µg/mL (≈ 202 µM) and the “ED50 (ug/ml) HuTu80” value [6] was 1.5 ± 0.1 µg/mL (≈ 3.88 µM). The “ED50 (ug/ml) PA1” value [7] was under 1 µg/mL, the “ED50 (ug/ml) DU145” value [8] was 8 ± 1.5 µg/mL (≈ 20.7 µM) and the “ED50 (ug/ml) KB” value [9] was under 1 µg/mL. The “ED50 (ug/ml) L132” value [10] was under 1 µg/mL, the “ED50 (ug/ml) 293” value [11] was over 100 µg/mL and the “ED50 (ug/ml) MiaPaca” value [12] was over 100 µg/mL. The “ED50 (ug/ml) ECV 304” value [13] was over 100 µg/mL, the “ED50 (ug/ml) SW620” value ([14]; SW620 (colon)) was under 1 µg/mL and the “Percent Induction of Caspase-3 6 hours” value [15] was 12.8 ± 0.2%. The “Percent Induction of Caspase-3 16 hours” value [15] was 17.0 ± 1.5%.
In the case of `COc1ccc(C2=C(c3cc(OC)c(OC)c(OC)c3)C(=NO)C(O)C2)cc1` (stereo not shown) [Compound 49], the “Percent Reduction in VEGF” value [1] is reported as 38.6 ± 1.9%, the IC50 [2] is reported as 2.3 ± 0.5 µM and the “percentage inhibition of tumor growth” value [16] is reported as 45.8%. For the same compound, the “ED50 (ug/ml) Hep2” value [3] was under 1.0 µg/mL, the “ED50 (ug/ml) MOLT4” value [4] was under 1.0 µg/mL and the “ED50 (ug/ml) PTC” value [5] was under 1.0 µg/mL. The “ED50 (ug/ml) PA1” value [7] was under 1.0 µg/mL, the “ED50 (ug/ml) DU145” value [8] was over 100 µg/mL and the “ED50 (ug/ml) KB” value [9] was under 1.0 µg/mL. The “ED50 (ug/ml) L132” value [10] was under 1.0 µg/mL, the “ED50 (ug/ml) MiaPaca” value [12] was 24 ± 3.5 µg/mL (≈ 62.3 µM) and the “ED50 (ug/ml) ECV 304” value [13] was over 100 µg/mL. The “ED50 (ug/ml) SW620” value ([14]; SW620 (ovary)) was under 1.0 µg/mL, the “Percent Induction of Caspase-3 6 hours” value [15] was 26.7 ± 2.8% and the “Percent Induction of Caspase-3 16 hours” value [15] was 31.9 ± 3.2%.
